Like-named read-outs stand apart in the source and are kept apart here.
Key:
[1] = tested on: pancreatic cancer tissue from patients; assay: Efficacy of ACP combined with gemcitabine in pancreatic cancer SuperPDTX mice model; type: in vivo, NCG mice; details: ACP 5 mg/kg p.o. Bid*7, Gemcitabine 30 mg/kg i.p. BIW
Source text: (§1) Mice: NCG (NOD-Prkdcem26I12rgem26Nju), Institute of Biomedical Research, Nanjing University
Pancreatic cancer tissue mass were the P2 generation samples of cryopreserved collected from mice after inoculation of the samples from patients with pancreatic cancer, and the samples used in this experiment were P3 generation samples after passage.
(§2) Pancreatic cancer samples were inoculated in the tested mice, and the size of inoculated tissue was 1*1*4mm^3. On the day of inoculation, mice were randomly divided into 4 experimental groups with 6 mice in each group and 4 mice in each cage. The day of grouping was defined as Day 0. The mice were administered according to the experimental protocol for 7 days, and sampled within 24 hours after the end of administration. 24h after the last administration, the experiment was ended, the mice were sacrificed, the tumor was removed, the surrounding connective tissue and muscle tissue were removed under the microscope, and stored in 10% formaldehyde.

[2] = tested on: liver cancer tissue from patients; assay: Efficacy of ACP combined with oxaliplatin or sorafenib in liver cancer SuperPDTX mice model; type: in vivo, NCG mice; details: pathology after 7 days; ACP 5 mg/kg p.o. Bid*7, Sorafenib 60 mg/kg p.o. Qd*7, Oxaliplatin 6 mg/kg i.p. Biw*1
Source text: as §1
as §2, with “Liver cancer tissue mass were the P1 generation samples of cryopreserved collected from mice after inoculation of the samples from patients with liver cancer, and the samples used in this experiment were P2 generation samples after passage. Liver cancer” for “Pancreatic cancer”, “was 1*1*4 mm^3.” for “was 1*1*4mm^3.”, “into 6” for “into 4”, “administration. 24 h” for “administration. 24h”

human lung cancer A549 = assay: Human lung cancer A549 xenograft transplantation model in nude mice; type: in vivo; details: ip × 7 qd; for Tumor Inhibition rate %: counted by tumor weight
Procedure: (§3) ACP Administration Group: oral doses were 5, 2.5 and 1.25 mg/kg; oral administration twice a day (with an interval of about 6 hours) for 14 days.
(§4) ACP+Adriamycin or Cyclophosphamide Administration Group: oral doses of ACP were 5, 2.5 and 1.25 mg/kg; oral administration twice a day (with an interval of about 6 hours) for 14 days. Adriamycin lmg/kg or Cyclophosphamide 15 mg/kg were administered intraperitoneally 10 min after the first ACP administration for 7 consecutive days.
(§5) Positive Control Group: Adriamycin 2 mg/kg/time or cyclophosphamide 30 mg/kg/time were administered intraperitoneally once a day for 7 days.
(§6) Negative Control Group: the same volume of solvent as the experimental group was administered, and the administration scheme was the same as that of the experimental group.
(§7) Human tumor cell lines cryopstored in liquid nitrogen were cultured at 37° C. and 5% CO2 after resuscitation. After subculture, the cells in logarithmic growth period were taken and prepared into cell suspension of about (1-2)×10^7 Cell/ml, and inoculated subcutaneously in the right axilla of nude mice 0.2 ml/mice. Under aseptic conditions, tumor tissues of the second or later generations of human tumors liver cancer QGY-7703, pancreatic cancer PANC-1, and lung cancer A549 xenograft models with vigorous growth in vivo, were taken and cut into uniform pieces with the size of 1-2 mm3, and one piece was subcutaneously inoculated in the right axilla of each naked mouse with trocar. The mouse were randomly divided into groups till the tumors inoculated grow to more than 100 mm^3 and administered according to the experimental design scheme.
(§8) After administration, the tumor size was dynamically observed and tested, and the body weight of tumor-bearing mice was weighed. The short diameter (a) and long diameter (b) of the tumor of the naked mouse were measured with calipers every 3 days, and the tumor volume was calculated according to the formula of (a^2×b)/2. The relative tumor volume (RTV) was calculated from the measured and calculated tumor volume, RTV=Vt/V0. Wherein, Vo is the tumor volume at random grouping (i.e., d0), and Vt is the tumor volume at each measurement (i.e., dn). The animals in each group were sacrificed at about three weeks, and the tumor volume was measured, dissected and weighed. The relative tumor proliferation rate and tumor inhibition rate were calculated according to the following formula: […]

[3] = tested on: human pancreatic cancer PANC-1; assay: Human pancreatic cancer PANC-1 xenograft transplantation model in nude mice; type: in vivo; details: ip × 7 qd; for Tumor Inhibition rate %: counted by tumor weight
Procedure: as §3, §4, §5, §6, §7, §8

[4] = tested on: human liver cancer QGY-7703; type: in vivo, nude mice; details: ip × 7 qd; for Tumor Inhibition rate %: counted by tumor weight
Procedure: as §3, §4, §5, §6, §7, §8

Nc1ccn([C@@H]2O[C@H](CO)[C@@H](O)C2(F)F)c(=O)n1 [Gemcitabine, gemcitabine]
Tumor Ki67 Mean ([1]; immunohistochemistry after 7 days): 23.33 ± 5.16 | Heterotypic Degree ([1]; pathology after 7 days): Moderate | Proportion of tumor necrosis TCNR Mean ([1]; pathology after 7 days): 0.00 ± 0.00 | Tumor component Mean ([1]; pathology after 7 days): 55.00 ± 18.71

O=C1[O][Pt]2([NH][C@@H]3CCCC[C@H]3[NH]2)[O]C1=O [Oxaliplatin, oxaliplatin]
Heterotypic Degree [2]: Severe | Proportion of tumor necrosis TCNR Mean [2]: 16.67 ± 8.76% | Tumor component Mean [2]: 53.33 ± 15.1%

COc1cccc2c1C(=O)c1c(O)c3c(c(O)c1C2=O)C[C@@](O)(C(=O)CO)C[C@@H]3O[C@H]1C[C@H](N)[C@H](O)[C@H](C)O1 [adriamycin]
Tumor weight (gram) x ± SD (human lung cancer A549; 1 mg/kg): 0.843 ± 0.08 gram | Tumor Inhibition rate % (human lung cancer A549; 1 mg/kg): 42.26% | Tumor weight (gram) x ± SD (human lung cancer A549; 2 mg/kg): 0.198 ± 0.04 gram | Tumor Inhibition rate % (human lung cancer A549; 2 mg/kg): 86.30% | Tumor weight (gram) x ± SD ([3]; 1 mg/kg): 0.668 ± 0.09 gram | Tumor Inhibition rate % ([3]; 1 mg/kg): 34.51% | Tumor weight (gram) x ± SD ([3]; 2 mg/kg): 0.265 ± 0.06 gram | Tumor Inhibition rate % ([3]; 2 mg/kg): 74.02%

O=P1(N(CCCl)CCCl)NCCCO1 (stereo not shown) [Cyclophosphamide, cyclophosphamide]
Tumor weight (gram) x ± SD ([4]; 15 mg/kg): 1.010 ± 0.19 gram | Tumor Inhibition rate % ([4]; 15 mg/kg): 36.88% | Tumor weight (gram) x ± SD ([4]; 30 mg/kg): 0.197 ± 0.04 gram | Tumor Inhibition rate % ([4]; 30 mg/kg): 87.69%

CNC(=O)c1cc(Oc2ccc(NC(=O)Nc3ccc(Cl)c(C(F)(F)F)c3)cc2)ccn1 [Sorafenib, sorafenib]
Heterotypic Degree [2]: Severe | Proportion of tumor necrosis TCNR Mean [2]: 18.33 ± 7.52% | Tumor component Mean [2]: 58.33 ± 24.8%
